From US6921749B1, “Polypeptides derived from endostatin exhibiting antiangiogenic activity” (Universita' Degli Studi di Milano, priority 1999, dated 2005)
Where no end group is shown, it is not given here. The star is where a group is joined. tBu = CC(C)(C)*

Assays:
[1] = test system: coronary venular endothelial cells (CVEC); experiment: Proliferation studies (total cell number), postcapillary venule endothelial cells; assay type: cell-based, bovine; settings: 10 to 1000 ng/ml, 48 hr, FGF-2 and VEGF 20 ng/ml each
Source text: The coronary venular endothelial cells (CVEC) were isolated and cultured as previously described (8).
Cell proliferation was quantified by total cell number as reported (12,13).
Cell proliferation was quantified by counting the total number of cells after 48 hr treatment. Endothelial cells isolated from postcapillary venules were used to test the effect on angiogenesis. […] The effect was more pronounced on FGF-2-induced growth. […] Similar effects were obtained on all the endothelial cell lines tested (FIG. 1E).
C-E: Effect of endostatin fragments on endothelial cell proliferation. Endothelial cell (C,D: CVEC; E, MAE) proliferation was stimulated with FGF-2 and VEGF (20 ng/ml each). Data are expressed as number of cells counted/well after 48 hr incubation with test substances. Numbers are means±SEM of 6 and 2 experiments run in triplicate for CVEC and ME, respectively.

mouse aorta rings = experiment: Vascular sprouting in vitro in three-dimensional fibrin gels; assay type: cell-based; settings: vascular rings in 3D fibrin gels, day 3
Description: Vascular sprouting from mouse aorta rings was assessed in three-dimensional fibrin gels preparations according to the method described by Brown et al (15), with minor modifications. Quantitative evaluation of newly formed structures was carried out at day 3. The area covered by vascular sprouts was quantified in microscopic units (0.21 mm^2).
The formation of capillary-like structures in vascular rings cultured in 3D fibrin gels was used to test angiogenesis in vitro. Fragment I and IV inhibited the spontaneous growth of capillaries and the one induced by FGF-2 and VEGF. As an example the effect of 100 ng/ml concentration of either fragment is shown (FIG. 3A).
FIG. 3: Effect of endostatin fragments on angiogenesis in vitro (A) and in vivo (B). A. In vitro vessel sprouting from rings of mouse aortas was induced by FGF-2 (10 ng/ml). Fragments I and IV were used at […]. Data are reported as mean area occupied by tubules-like structures after 3 days from stimulation. Numbers are means of one representative experiment out of two run in triplicate.

endothelial cells = experiment: In vitro inhibition test on endothelial cells proliferation and migration; assay type: cell-based
Source text: These polypeptides have remarkable antiangiogenic activity in the in vitro inhibition test on endothelial cells proliferation and migration (16).

[2] = test system: microvascular endothelial cells; settings: E. coli expressed protein; cited from earlier work

Substance	cell growth induced by FGF-2 and VEGF [1]	growth of capillaries induced by FGF-2 and VEGF (mouse aorta rings)	spontaneous growth of capillaries (mouse aorta rings)	potency compared with endostatin (endothelial cells)	FGF-2 and VEGF induced proliferation and migration [2]
Cys-Glu-Thr-Trp-Arg-Thr-Glu-Thr-Thr-Gly-Ala-Thr-Gly-Gln-Ala-Ser-Ser-Leu-Leu-Ser-Gly-Arg-Leu-Leu-Glu-Gln-Lys-Ala-Ala-Ser-Cys-His-Asn-Ser-Tyr-Ile-Val-Leu-Cys(tBu)-Ile-Glu-Asn-Ser-Phe-Met-Thr-Ser-Phe-Ser-Lys (CETWRTETTGATGQASSLLSGRLLEQKAASCHNSYIVLC(tBu)IENSFMTSFSK; cysteine pairing not given here) [Fragment IV]	most potent	inhibited	inhibited		
His-Thr-His-Gln-Asp-Phe-Gln-Pro-Val-Leu-His-Leu-Val-Ala-Leu-Asn-Thr-Pro-Leu-Ser-Gly-Gly-Met-Arg-Gly-Ile-Arg-Gly-Ala-Asp-Phe-Gln-Cys(tBu)-Phe-Gln-Gln-Ala-Arg-Ala (HTHQDFQPVLHLVALNTPLSGGMRGIRGADFQC(tBu)FQQARA) [Fragment I]		inhibited	inhibited	equipotential to endostatin	
endostatin					able to block
